Activity calls are given as the source filed them. The calls are words filed in the database; no cut-off is given here.
Columns and labels:
[1] = target: Fibroblast growth factor receptor 1 (Homo sapiens) (UniProt P11362); assay: Inhibition of human cytoplasmic domain N-terminal GST tagged FGFR1 (398 to 822 end residues) expressed in baculovirus expression system using CSKtide as substrate at 10 uM by mobility shift assay relative to control
[2] = target: AMP-activated protein kinase (AMPK) alpha-1/beta-1/gamma-1 (Homo sapiens) (UniProt P54619+Q9Y478+Q13131); assay: Inhibition of full length human N-terminal GST tagged AMPK alpha1(1 to 550 end residues)/beta1 (1 to 270 end residues)/gamma1 (1 to 331 end residues) expressed in baculovirus expression system using SAMS peptide as substrate at 10 uM by mobility shift assay relative to control
[3] = target: Alpha-2A adrenergic receptor (Homo sapiens) (UniProt P08913); assay: Inhibition of Alpha2A receptor (unknown origin) at 10 uM by radioligand binding assay relative to control
[4] = target: Muscarinic acetylcholine receptor M4 (Homo sapiens) (UniProt P08173); assay: Inhibition of M4 receptor (unknown origin) at 10 uM by radioligand binding assay relative to control
[5] = target: Sigma intracellular receptor 2 (Homo sapiens, UniProt Q5BJF2); assay: Inhibition of Sigma2 receptor (unknown origin) at 10 uM by radioligand binding assay relative to control
[6] = target: N-lysine methyltransferase SMYD2 (Homo sapiens, UniProt Q9NRG4); assay: Inhibition of SMYD2 (unknown origin) using [3H-SAM] as substrate incubated for 1 hr by scintillation proximity assay
[7] = target: 5-hydroxytryptamine receptor 2A (Homo sapiens) (UniProt P28223); assay: Inhibition of 5-HT2A receptor (unknown origin) at 10 uM by radioligand binding assay relative to control
[8] = target: Sodium-dependent serotonin transporter (Homo sapiens) (UniProt P31645); assay: Inhibition of SERT (unknown origin) at 10 uM by radioligand binding assay relative to control
Histamine H3 receptor = Histamine H3 receptor (Homo sapiens, UniProt Q9Y5N1)
Description: Binding affinity to H3 receptor (unknown origin) assessed as inhibition constant

[9] = target: Alpha-1D adrenergic receptor (Homo sapiens) (UniProt P25100); assay: Inhibition of Alpha1D receptor (unknown origin) at 10 uM by radioligand binding assay relative to control
[10] = target: Histone-lysine N-methyltransferase KMT5B (Homo sapiens, UniProt Q4FZB7); assay: Inhibition of SUV420H1 (unknown origin) using [3H-SAM] as substrate incubated for 1 hr by scintillation proximity assay
Sequence of Histone-lysine N-methyltransferase KMT5B (Q4FZB7 whole entry): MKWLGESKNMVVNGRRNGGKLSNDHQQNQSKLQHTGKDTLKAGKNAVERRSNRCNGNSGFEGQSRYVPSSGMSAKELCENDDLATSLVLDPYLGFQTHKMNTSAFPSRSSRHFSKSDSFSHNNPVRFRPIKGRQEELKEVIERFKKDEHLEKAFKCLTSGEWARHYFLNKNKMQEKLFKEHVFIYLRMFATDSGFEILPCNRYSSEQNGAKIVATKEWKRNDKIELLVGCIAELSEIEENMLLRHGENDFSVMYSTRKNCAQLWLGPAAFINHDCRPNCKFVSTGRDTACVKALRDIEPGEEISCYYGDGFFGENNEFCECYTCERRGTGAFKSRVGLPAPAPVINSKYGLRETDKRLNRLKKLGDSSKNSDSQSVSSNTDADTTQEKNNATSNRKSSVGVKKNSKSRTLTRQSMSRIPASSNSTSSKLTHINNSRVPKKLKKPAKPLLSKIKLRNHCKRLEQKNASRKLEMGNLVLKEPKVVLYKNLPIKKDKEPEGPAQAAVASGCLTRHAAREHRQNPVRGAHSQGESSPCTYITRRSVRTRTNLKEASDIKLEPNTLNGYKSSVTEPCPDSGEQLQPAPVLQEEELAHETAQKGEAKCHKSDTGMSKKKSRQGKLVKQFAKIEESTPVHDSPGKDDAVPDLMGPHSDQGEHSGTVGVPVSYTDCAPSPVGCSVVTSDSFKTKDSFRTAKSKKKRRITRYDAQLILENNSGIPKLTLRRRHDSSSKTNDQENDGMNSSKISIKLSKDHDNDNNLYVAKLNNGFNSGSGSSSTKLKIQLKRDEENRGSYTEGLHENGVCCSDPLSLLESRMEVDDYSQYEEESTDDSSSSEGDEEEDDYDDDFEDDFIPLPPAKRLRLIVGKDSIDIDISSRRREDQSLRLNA

[11] = target: Beta-3 adrenergic receptor (Homo sapiens) (UniProt P13945); assay: Inhibition of Beta3receptor (unknown origin) at 10 uM by radioligand binding assay relative to control
[12] = target: Histone-lysine N-methyltransferase KMT5C (Homo sapiens, UniProt Q86Y97); assay: Inhibition of SUV420H2 (unknown origin) using [3H-SAM] as substrate incubated for 1 hr by scintillation proximity assay
Sequence of Histone-lysine N-methyltransferase KMT5C (Q86Y97 whole entry): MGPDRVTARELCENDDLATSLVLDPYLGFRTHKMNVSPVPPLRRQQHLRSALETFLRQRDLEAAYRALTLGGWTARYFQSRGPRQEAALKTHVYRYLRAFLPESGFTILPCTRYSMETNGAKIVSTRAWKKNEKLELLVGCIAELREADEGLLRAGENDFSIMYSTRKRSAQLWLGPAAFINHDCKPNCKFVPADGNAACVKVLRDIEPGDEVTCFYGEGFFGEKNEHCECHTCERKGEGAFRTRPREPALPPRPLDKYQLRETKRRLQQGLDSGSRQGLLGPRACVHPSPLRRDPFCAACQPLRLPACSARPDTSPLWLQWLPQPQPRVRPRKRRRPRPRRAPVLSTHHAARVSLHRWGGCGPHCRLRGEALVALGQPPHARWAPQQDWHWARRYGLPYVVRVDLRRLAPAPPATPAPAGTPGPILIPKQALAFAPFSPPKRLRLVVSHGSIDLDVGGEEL

[13] = target: Lymphokine-activated killer T-cell-originated protein kinase (Homo sapiens) (UniProt Q96KB5); assay: Inhibition of full length human N-terminal GST tagged PBK (1 to 322 end residues) expressed in baculovirus expression system using histone H3 as substrate at 10 uM by mobility shift assay relative to control
[14] = target: Serine/threonine-protein kinase D2 (Homo sapiens) (UniProt Q9BZL6); assay: Inhibition of full length human N-terminal GST tagged PKD2 (1 to 878 end residues) expressed in baculovirus expression system using GS as peptide at 10 uM by mobility shift assay relative to control
[15] = target: Tyrosine-protein kinase SYK (Homo sapiens) (UniProt P43405); assay: Inhibition of full length human N-terminal GST tagged SYK (1 to […] end residues) expressed in baculovirus expression system using Blk/lyntide as substrate at 10 uM by mobility shift assay relative to control
[16] = target: Alpha-1B adrenergic receptor (Homo sapiens) (UniProt P35368); assay: Inhibition of Alpha1B receptor (unknown origin) at 10 uM by radioligand binding assay relative to control
Sequence of Alpha-1B adrenergic receptor (Homo sapiens) (P35368 whole entry): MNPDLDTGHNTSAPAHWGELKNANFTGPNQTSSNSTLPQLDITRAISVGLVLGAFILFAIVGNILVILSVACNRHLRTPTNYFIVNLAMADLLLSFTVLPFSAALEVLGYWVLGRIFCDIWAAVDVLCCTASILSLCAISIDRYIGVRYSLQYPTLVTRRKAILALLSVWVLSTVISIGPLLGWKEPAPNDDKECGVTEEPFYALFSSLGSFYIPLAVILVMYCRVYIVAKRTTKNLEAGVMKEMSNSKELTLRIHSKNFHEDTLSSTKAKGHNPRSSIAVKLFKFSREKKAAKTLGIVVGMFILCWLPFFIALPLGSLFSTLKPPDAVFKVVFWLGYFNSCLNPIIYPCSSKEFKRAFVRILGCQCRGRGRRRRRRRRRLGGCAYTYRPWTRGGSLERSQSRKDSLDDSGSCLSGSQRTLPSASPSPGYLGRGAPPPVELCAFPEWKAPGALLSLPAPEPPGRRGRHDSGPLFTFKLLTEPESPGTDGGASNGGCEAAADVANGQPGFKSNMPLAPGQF

DB [17] = assay: Antiproliferative activity against human DB cells assessed as reduction in cell viability at 5000 nM by cell proliferation assay relative to control; format: functional
[18] = target: Histone-lysine N-methyltransferase EZH2 (Homo sapiens, UniProt Q15910)
Sequence of Histone-lysine N-methyltransferase EZH2 (Q15910 whole entry): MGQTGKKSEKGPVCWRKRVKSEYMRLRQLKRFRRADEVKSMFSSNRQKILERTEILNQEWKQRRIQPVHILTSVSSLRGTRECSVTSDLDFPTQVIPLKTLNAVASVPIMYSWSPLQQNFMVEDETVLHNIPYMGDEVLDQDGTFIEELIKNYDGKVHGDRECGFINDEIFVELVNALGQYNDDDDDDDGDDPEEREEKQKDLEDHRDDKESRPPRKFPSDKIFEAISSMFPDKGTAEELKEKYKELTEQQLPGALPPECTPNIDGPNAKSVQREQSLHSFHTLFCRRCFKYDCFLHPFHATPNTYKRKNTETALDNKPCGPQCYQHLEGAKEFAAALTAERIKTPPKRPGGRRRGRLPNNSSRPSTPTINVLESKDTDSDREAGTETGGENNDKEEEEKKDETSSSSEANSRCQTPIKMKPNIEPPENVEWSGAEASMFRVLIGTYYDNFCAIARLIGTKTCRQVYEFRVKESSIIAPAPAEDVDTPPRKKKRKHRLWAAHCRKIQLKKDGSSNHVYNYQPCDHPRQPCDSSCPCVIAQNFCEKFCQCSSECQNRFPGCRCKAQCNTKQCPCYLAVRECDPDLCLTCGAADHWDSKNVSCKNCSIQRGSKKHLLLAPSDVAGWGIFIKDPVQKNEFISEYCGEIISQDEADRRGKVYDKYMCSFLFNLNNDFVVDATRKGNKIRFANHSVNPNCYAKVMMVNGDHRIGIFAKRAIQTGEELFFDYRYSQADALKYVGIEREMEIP
Description: Competitive inhibition of EZH2 methyltransferase activity (unknown origin) in PRC2 complex assessed as inhibition constant in presence of cofactor SAM by Lineweaver-Burk plot analysis

[19] = target: 5-hydroxytryptamine receptor 1A (Homo sapiens) (UniProt P08908); assay: Inhibition of 5-HT1A receptor (unknown origin) at 10 uM by radioligand binding assay relative to control
Sequence of 5-hydroxytryptamine receptor 1A (Homo sapiens) (P08908 whole entry): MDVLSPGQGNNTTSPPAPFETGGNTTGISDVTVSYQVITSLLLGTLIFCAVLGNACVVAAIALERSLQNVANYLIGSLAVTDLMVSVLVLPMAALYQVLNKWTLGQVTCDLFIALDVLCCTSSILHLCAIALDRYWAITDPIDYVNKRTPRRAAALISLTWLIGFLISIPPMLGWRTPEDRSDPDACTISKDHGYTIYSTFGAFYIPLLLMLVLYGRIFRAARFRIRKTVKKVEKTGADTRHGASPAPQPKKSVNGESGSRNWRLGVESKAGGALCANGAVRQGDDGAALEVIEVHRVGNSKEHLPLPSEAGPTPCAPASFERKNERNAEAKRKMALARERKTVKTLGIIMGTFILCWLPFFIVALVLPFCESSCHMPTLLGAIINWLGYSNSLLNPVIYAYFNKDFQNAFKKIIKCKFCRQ

DB [20] = assay: Downregulation of EZH2 level in human DB cells at 3000 nM measured after 3 days; format: functional, cell-based; conditions: time 3.0 day
[21] = target: 5-hydroxytryptamine receptor 5A (Homo sapiens) (UniProt P47898); assay: Inhibition of 5-HT5A receptor (unknown origin) at 10 uM by radioligand binding assay relative to control
[22] = target: Aurora kinase A (Homo sapiens) (UniProt O14965); assay: Inhibition of full length human N-terminal GST tagged AurA (1 to 403 end residues) expressed in baculovirus expression system using kemptide as substrate at 10 uM by mobility shift assay relative to control
[23] = target: CDK2/Cyclin A2 (Homo sapiens) (UniProt P24941+P20248); assay: Inhibition of full length human N-terminal GST tagged CDK2 (1 to 298 residues)/GST tagged CycA2 (1 to 432 end residues) expressed in baculovirus expression system using histone H1 as substrate at 10 uM by mobility shift assay relative to control
[24] = target: Serine/threonine-protein kinase Nek2 (Homo sapiens) (UniProt P51955); assay: Inhibition of full length human N-terminal his-tagged NEK2 (1 to 445 end residues) expressed in baculovirus expression system using CDK7 peptide as substrate at 10 uM by mobility shift assay relative to control
[25] = target: Mitogen-activated protein kinase kinase kinase kinase 4 (Homo sapiens) (UniProt O95819); assay: Inhibition of human catalytic domain N-terminal GST tagged HGK (1 to 328 residues) expressed in baculovirus expression system using moesin-derived peptide as substrate at 10 uM by mobility shift assay relative to control
[26] = target: Protein kinase C alpha type (Homo sapiens) (UniProt P17252); assay: Inhibition of full length human N-terminal GST tagged PKC alpha (1 to 672 end residues) expressed in baculovirus expression system using PKC as peptide at 10 uM by mobility shift assay relative to control
[27] = target: 5-hydroxytryptamine receptor 1E (Homo sapiens) (UniProt P28566); assay: Inhibition of 5-HT1E receptor (unknown origin) at 10 uM by radioligand binding assay relative to control
[28] = target: Tyrosine-protein kinase JAK3 (Homo sapiens) (UniProt P52333); assay: Inhibition of human catalytic domain N-terminal his tagged JAK3 (795 to 1124 end residues) expressed in baculovirus expression system using Srctide as substrate at 10 uM by mobility shift assay relative to control
Sequence of Tyrosine-protein kinase JAK3 (Homo sapiens) (P52333 whole entry, the tested form may be a part): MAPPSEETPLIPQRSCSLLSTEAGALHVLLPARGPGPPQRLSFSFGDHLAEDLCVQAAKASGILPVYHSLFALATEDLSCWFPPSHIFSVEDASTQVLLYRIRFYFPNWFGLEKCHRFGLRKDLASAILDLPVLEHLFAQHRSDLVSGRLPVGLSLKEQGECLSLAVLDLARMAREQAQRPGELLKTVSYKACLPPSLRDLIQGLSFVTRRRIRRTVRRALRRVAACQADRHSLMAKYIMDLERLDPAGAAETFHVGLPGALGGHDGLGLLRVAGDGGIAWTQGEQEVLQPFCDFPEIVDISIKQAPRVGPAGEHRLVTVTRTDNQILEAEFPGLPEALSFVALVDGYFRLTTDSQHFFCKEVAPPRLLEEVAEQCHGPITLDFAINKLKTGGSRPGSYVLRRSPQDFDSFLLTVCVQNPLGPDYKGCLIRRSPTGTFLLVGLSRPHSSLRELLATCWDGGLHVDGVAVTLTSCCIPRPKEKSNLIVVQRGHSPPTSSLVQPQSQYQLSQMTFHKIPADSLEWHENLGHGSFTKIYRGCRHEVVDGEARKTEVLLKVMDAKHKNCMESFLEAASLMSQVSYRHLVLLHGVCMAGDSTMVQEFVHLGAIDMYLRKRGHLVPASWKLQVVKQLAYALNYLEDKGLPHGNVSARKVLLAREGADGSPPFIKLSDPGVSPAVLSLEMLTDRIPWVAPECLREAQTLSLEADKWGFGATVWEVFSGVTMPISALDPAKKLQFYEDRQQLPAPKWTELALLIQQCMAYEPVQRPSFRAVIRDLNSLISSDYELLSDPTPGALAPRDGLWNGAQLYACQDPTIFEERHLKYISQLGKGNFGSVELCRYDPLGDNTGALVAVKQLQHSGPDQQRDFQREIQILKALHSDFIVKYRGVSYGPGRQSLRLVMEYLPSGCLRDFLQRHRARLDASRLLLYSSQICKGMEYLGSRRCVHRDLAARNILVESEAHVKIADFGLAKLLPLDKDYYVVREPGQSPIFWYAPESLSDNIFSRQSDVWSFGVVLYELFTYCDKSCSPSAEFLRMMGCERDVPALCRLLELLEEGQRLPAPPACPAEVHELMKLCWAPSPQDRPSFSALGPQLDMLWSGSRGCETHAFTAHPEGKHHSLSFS

[29] = target: Ephrin type-B receptor 4 (Homo sapiens) (UniProt P54760); assay: Inhibition of human cytoplasmic domain N-terminal GST tagged EPHB4 (577 to 987 end residues) expressed in baculovirus expression system using Blk/lyntide as substrate at 10 uM by mobility shift assay relative to control

Sequence of Fibroblast growth factor receptor 1 (Homo sapiens) (P11362 22-822 limits assumed): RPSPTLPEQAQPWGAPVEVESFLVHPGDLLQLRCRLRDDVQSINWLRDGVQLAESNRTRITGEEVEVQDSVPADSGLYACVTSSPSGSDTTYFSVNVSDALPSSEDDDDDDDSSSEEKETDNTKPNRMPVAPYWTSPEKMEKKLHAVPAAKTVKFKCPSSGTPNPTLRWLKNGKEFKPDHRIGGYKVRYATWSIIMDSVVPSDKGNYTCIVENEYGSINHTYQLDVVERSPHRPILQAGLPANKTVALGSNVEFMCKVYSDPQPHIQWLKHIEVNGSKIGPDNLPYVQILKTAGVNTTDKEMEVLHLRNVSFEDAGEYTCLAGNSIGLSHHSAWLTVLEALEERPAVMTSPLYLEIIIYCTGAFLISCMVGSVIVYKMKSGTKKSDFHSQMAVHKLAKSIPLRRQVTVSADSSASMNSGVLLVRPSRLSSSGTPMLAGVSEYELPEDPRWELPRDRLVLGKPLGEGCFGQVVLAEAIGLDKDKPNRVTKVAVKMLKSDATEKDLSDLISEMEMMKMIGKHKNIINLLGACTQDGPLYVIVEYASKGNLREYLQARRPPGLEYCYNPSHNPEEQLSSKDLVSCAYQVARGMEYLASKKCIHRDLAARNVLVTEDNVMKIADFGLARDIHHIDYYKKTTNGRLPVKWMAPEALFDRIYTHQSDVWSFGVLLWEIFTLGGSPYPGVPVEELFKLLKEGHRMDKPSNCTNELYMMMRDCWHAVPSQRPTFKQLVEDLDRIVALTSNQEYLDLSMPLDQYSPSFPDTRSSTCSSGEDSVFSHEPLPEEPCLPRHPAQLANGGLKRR

Question: What does the source list for `CCCc1cc(C)[nH]c(=O)c1CNC(=O)c1cc(-c2ccc(N3CCN(C(C)C)CC3)nc2)cc2c1cnn2C(C)C`?
Answer: inhibition [1]: -9%; inhibition [2]: -3%; inhibition [3]: 14%; inhibition [4]: 21%; inhibition [5]: 93%; IC50 [6]: > 100000 nM; inhibition [7]: 39%; inhibition [8]: 6%; Ki (Histamine H3 receptor): 300 nM; inhibition [9]: 14%; IC50 [10]: > 100000 nM; inhibition [11]: 10%; IC50 [12]: > 100000 nM; inhibition [13]: -10%; inhibition [14]: 5%; inhibition [15]: -6%; inhibition [16]: 6%; Activity (DB [17]): 100%; Ki [18]: 4.6 nM; inhibition [19]: 11%; Activity (DB [20]): inactive; inhibition [21]: 10%; inhibition [22]: -4%; inhibition [23]: -3%; inhibition [24]: -4%; inhibition [25]: -2%; inhibition [26]: -4%; inhibition [27]: 2%; inhibition [28]: -8%; inhibition [29]: -6%

Reference: ChEMBL document CHEMBL5705896 (ACS Chem Biol, 2013)
